Test results: patent publication US20220389112A1, “TREATMENT OF MULTIPLE MYELOMA” (priority 2019, published 2022)

Experiments:
Type in all cases: cell-based
JJN3 MM cells = experiment: CD38 expression by flow cytometry on JJN3; conditions: treated 72 hours prior to expression measurement
Procedure: (§1) Both types of primary NK cell were cultured with the same amount of IL-2 ([…] as is standard for primary NK cell work. MM1S, H929 and JJN3 were treated with either SIA or Neura as described above and stained with an anti-CD38 antibody (BD Pharmingen-564498) for 30 mins on ice prior to being screened for expression using flow cytometry.
JJN3 MM cells were treated with 300 μM SIA and 10 nM ATRA (all-trans retinoic acid), or 300 μM SIA, 10 nM ATRA and DMSO individually for 72 hrs@37° C. After 72 hours, the cells were collected, washed with normal culture media once and then treated with Daratumumab at a concentration of 10 μg/ml for 30 mins at room temperature.
Some cells from all treatment conditions were not treated with Daratumumab and were instead screened for CD38 expression using an anti-CD38 antibody.

[1] = system: H929 target myeloma cell line; experiment: NK cell mediated cytotoxicity co-culture against H929; conditions: expanded primary NK cells, co-cultures 4 hrs
Procedure: Co-cultures were carried out with either expanded (Miltenyi method) primary NK cells or IL-2 activated primary NK cells, both originally isolated from peripheral blood supplied by healthy donors and H929 and JJN3 target myeloma cell lines.
Propidium Iodide was used in flow cytometry to identify dead cells. MM cells were separated from NK cells by staining NK cells with CFSE cell tracking dye prior to initiating the co-culture.
% specific lysis (reported in all our figures) was calculated using the following formula:
Total cell death−basal cell death/100−basal cell death×100=%
Cell death here applies to target cells (e.g. JJN3 and H929)
After 30 mins treatment with Daratumumab, cells were co-cultured with primary expanded NK cells (Miltenyi method) for 4 hours at either 0.5:1 or 1:1 E:T (Effector:Target) ratios.

MM cell line MM1S = experiment: CD38 expression by flow cytometry on MM1S; conditions: anti-CD38 staining, vs non-treated controls
Procedure: (§2) Desialylation: Target cells were cultured with 300 μM 3Fax-Peracetyl Neu5Ac (SIA, sialyltransferase inhibitor) for 72 hrs prior to use or treated with Neuraminidase (Neura, sialidase) for 45 mins@37° C. prior to use.
as §1

MM cell line H929 = experiment: CD38 expression by flow cytometry on H929; conditions: anti-CD38 staining, vs non-treated controls
Procedure: as §2, §1

SMILES: CC1=C(/C=C/C(C)=C/C=C/C(C)=C/C(=O)O)C(C)(C)CCC1 [ATRA, all-trans retinoic acid]
- CD38 expression (JJN3 MM cells): strongly up-regulates CD38 expression

SMILES: COC(=O)C1(OC(C)=O)OC(C(OC(C)=O)C(COC(C)=O)OC(C)=O)C(NC(C)=O)C(OC(C)=O)C1F (stereo not shown) [SIA, 3Fax-Peracetyl Neu5Ac]
- expanded primary NK cell-mediated cytotoxicity (% specific lysis) [1]: enhanced expanded primary NK cell-mediated cytotoxicity
- CD38 expression (MFI) (MM cell line MM1S): unmasks CD38
- CD38 expression (MFI) (MM cell line H929): unmasks CD38
